Test results as given in patent US10144705B2 (Commissariat a l'energie atomique et aux energies …, priority 2012, dated 2018).

Tests used:
[1] = test system: in-vitro cell-based BBB model (coculture of glial cells and brain endothelial cells); assay type: in vitro ADME
Protocol: The in-vitro cell-based BBB model which is used to assess the permeability of fatty esters consists in a coculture of glial cells and brain endothelial cells. A transport buffer (150 mM NaCl, 5.2 mM KCl, 2.2 mM CaCl2, 0.2 mM MgCl2, 6 mM NaHCO3, 2.8 mM glucose and 5 mM Hepes) is added: 1500 μl to the basolateral chamber (which represents the cerebral parenchyma) and 500 μl to the apical chamber (which represents the blood). The fatty esters are introduced in the apical compartment. After 60 min, aliquots are removed from the apical and basolateral chambers for drug-concentration determination. The percentage of drug from the initial dosage that crossed BBB is calculated as follows: P (%)=[(Bf×1500)/(A0×500)]×100 where Bf is the amount of tested compounds in the basolateral compartment at the end point. A0 is the initial amount in the apical compartment at time point 0.

[2] = cited from earlier work

## CCOC(=O)CN(C)C(=N)N [C2]
[1]
  permeability through the blood brain barrier: not
  translocation within brain endothelial cells or in the basal compartment: no translocation

## CN(CC(=O)O)C(=N)N [creatine, 2-1(methylguanidino) acetic acid]
[2]
  oral bioavailability: low
